From patent US20030086952A1, “Highhly concentrated emulsions of organic compounds and methos of use” (priority 2001, published 2003)
Entries after “also recorded” stand apart in the source; their conditions may differ. Marks after values point to notes of the source that are not given here.

What was measured:
Type in all cases: physicochemical
[1] = Production of concentrated Yucca shidegera saponin emulsions in water (content reached); conditions: for Ratio of saponin to emulsified molecule (by mass) / Content (by mass) of molecule in emulsion: Yucca shidegera saponin emulsion in water; for Content (by mass) of molecule in emulsion: mass fraction
Description: (§1) The concentrated emulsions readily re-disperse upon dilution in water to working concentrations of interest. The final concentration of saponin with respect to the organic molecule is easily obtainable at 1:50 or 1:100 w/w, or even less. The shelf life of the concentrated emulsions, either at room temperature (about 25° C.) or at refrigerator temperature (about 4° C.) is at least 1 year, although separation of an emulsion, once stably formed, has not been observed.
mulsions of some aqueous-recalcitrant compounds were prepared in water using Yucca shidegera extracts containing about 12-14% saponin, as an emulsifying agent. The saponin preparations were obtained from Danco Natural Products, Pine Valley, Calif., and are sold under the trade names Pure Yucca (about 7-14% saponin and Yucca Ultra (about 10-11% saponin). These preparations had been filtered by the supplier to remove any fibers which could interfere with the emulsification process. The components were combined as follows, using D-limonene as an example.
(§2) D-limonene (B. F. Goodrich/Kalama Chemicals, Kalama, Wash.) in the amount of 50 grams was added directly to a clean glass container. To this, 1.6 grams of yucca saponin was added. The glass container was covered tightly and agitated vigorously. A poor, partially opaque solution resulted. […] 18.4 grams water was then added such that the total weight of the three components was 70 grams. The mixture was agitated again vigorously in a capped container. A viscous, white and truly opaque emulsion resulted. […] To this, another 30 grams limonene was added while mixing to form 100 g final emulsion. The final concentration of D-limonene in the emulsion was 80% by weight. An additional 10 grams of D-limonene can be to bring the final concentration to 90% by weight.
Likewise, other organic compounds can be emulsified by combining about 50 grams of the organic compound with the fraction of saponin indicated in Table 1 and water in a sufficient amount to produce an emulsion upon mixing of the three components. Following formation of the emulsion, the amount of organic compound can be increased as desired.

[2] = Stability of the saponin emulsions (stable emulsion formed, phase separation, recrystallizing, shelf life); conditions: for formation of a stable emulsion: with yucca saponin and water
Description: as §2, with “vigorously.” for “vigorously. A poor, partially opaque solution resulted.”, “container.” for “container. A viscous, white and truly opaque emulsion resulted.”
(§3) It is worth noting that vanillin is a solid at room termperature. The vanillin emulsion was prepared by first heating vanillin to at least 81° C. in order to melt it, then adding the other components.

[3] = Re-dilution of the concentrated emulsions in water; conditions: concentrated emulsion diluted in water
Description: as §1
Furthermore, no two of the three components were able to form an emulsion on their own under the stated conditions. Emulsions were only possible with all three components.
as §3

| Compound | Ratio of saponin to emulsified molecule (by mass) [1] | Content (by mass) of molecule in emulsion [1] | formation of a stable emulsion [2] | further results |
| --- | --- | --- | --- | --- |
| O=C(OCc1ccccc1)c1ccccc1 [benzyl benzoate] | 1/55 | .534 | – | – |
| COc1cc(/C=C/C=O)cc(OC)c1O [sinapaldehyde] | – | – | did not form stable emulsions; also recorded: stable emulsions were not obtained | – |
| CC/C=C\CC1C(=O)CCC1CC(=O)OC (stereo not drawn) [methyl jasmonate] | – | – | did not form stable emulsions | – |
| C=C(C)[C@H]1CC=C(C)CC1 [d-limonene, D-limonene] | 1/78 | .909 | stable emulsion | concentration of organic compound in the emulsion ([1]; stable saponin emulsion in water, two step mixing): 80 % by weight; phase separation of emulsion ([2]; ambient temperature, 50:12:1 D-limonene:water:saponin): will not undergo phase separation for up to two weeks; dilution of emulsion in water [3]: readily diluted up to eighty-fold |
| C=CCc1ccc(O)c(OC)c1 [eugenol] | – | – | did not form stable emulsions; also recorded: stable emulsions were not obtained | – |
| COc1cc(/C=C/C=O)ccc1O [coniferaldehyde] | – | – | did not form stable emulsions; also recorded: stable emulsions were not obtained | – |
| C=C(C)C1CC=C(C)CC1 (single isomer, unassigned; (+)) [(+) limonene] | 1/18* | .690 | – | – |
| COc1cc(C=O)ccc1O [vanillin] | 1/34 | .566 | – | stability of emulsion without recrystallizing ([2]; room temperature, prepared from melt (>81° C.)): stable at room temperature without recrystallizing |
| O=CC=Cc1ccccc1 [cinnamaldehyde] | 1/50 | .899 | – | – |
| cedryl acetate | 1/196 | .794 | – | – |
